# Source: patent US12427192B2, “Water soluble adjuvant and composition containing same” (Sumitomo Pharma Co., Ltd., priority 2019, dated 2025)
# Tests used:
# [1] = molecular target: T1, human TLR7 (Homo sapiens, UniProt Q9NYK1); assay: Human TLR7 reporter gene assay (HEK-Blue hTLR7 cell line), Test 22; type: cell-based; conditions: method of Test 1
# T1 construct: expresses full-length human TLR7 and secretory alkaline phosphatase (SEAP) reporter gene; host or cells: HEK293 (TLR7/NF-κB/SEAPorter)
# T1 sequence (Q9NYK1 27-1049): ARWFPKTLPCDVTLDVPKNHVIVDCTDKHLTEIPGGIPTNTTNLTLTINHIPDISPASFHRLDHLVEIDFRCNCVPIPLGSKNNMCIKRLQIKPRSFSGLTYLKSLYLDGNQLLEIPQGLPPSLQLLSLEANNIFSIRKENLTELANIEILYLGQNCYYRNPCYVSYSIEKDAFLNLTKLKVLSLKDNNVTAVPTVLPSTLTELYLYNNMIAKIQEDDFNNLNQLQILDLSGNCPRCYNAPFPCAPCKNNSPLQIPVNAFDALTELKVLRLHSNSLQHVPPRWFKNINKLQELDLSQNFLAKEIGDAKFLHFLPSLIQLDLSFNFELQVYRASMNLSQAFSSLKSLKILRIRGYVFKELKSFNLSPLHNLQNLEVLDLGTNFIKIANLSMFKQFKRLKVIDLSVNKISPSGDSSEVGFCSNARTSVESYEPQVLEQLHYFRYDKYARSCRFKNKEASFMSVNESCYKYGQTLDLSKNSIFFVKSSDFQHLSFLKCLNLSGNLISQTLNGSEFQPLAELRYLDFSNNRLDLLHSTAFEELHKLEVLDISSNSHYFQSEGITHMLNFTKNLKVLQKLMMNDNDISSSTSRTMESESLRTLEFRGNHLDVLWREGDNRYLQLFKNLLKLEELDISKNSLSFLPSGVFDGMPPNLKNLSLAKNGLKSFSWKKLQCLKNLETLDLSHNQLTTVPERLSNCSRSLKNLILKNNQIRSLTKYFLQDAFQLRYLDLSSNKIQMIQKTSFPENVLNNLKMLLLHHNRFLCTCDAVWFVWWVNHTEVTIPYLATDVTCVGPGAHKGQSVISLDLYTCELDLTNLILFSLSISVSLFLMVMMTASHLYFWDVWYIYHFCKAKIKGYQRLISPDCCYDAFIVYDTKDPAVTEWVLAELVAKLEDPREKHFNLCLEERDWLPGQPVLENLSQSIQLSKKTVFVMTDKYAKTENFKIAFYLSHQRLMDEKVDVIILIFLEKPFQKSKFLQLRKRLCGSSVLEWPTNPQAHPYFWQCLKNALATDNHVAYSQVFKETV
# Text: (§1) TLR7/NF-κB/SEAPorter™ HEK293 cell line (Imgenex Corporation) is a stably co-transfected cell line which expresses full-length human TLR7 and secretory alkaline phosphatase (SEAP) reporter gene under the transcriptional regulation of an NF-κB response element. The TLR7 expression of the cell line has been already tested by flow cytometry. Transfectants with stable expression were selected using the antibiotic blasticidin and Geneticin. TLR signaling leads to the translocation of NF-κB and the activation of the promoter results in expression of the SEAP gene. TLR7-specific activation was assessed by determining the level of SEAP produced following 24-hour incubation of the cells at 37° C. with each compound prepared in Examples and Reference examples in the presence of 0.1% (v/v) dimethylsulfoxide (DMSO). The human TLR7 activity for the present compound was assessed by human TLR7 reporter gene assay, and the results are shown in Tables 3 and 4 as the compound concentration which produced half of the maximal level of SEAP induction (EC50)
# According to the method of Test 1, human TLR7 reporter gene assay was done with the following samples, and the result was shown in the table below. The cell used herein was HEK-Blue™ hTLR7 cell line (Invivogen). HEK-Blue™ hTLR7 cell line is a stably co-transfected cell line which expresses full-length human TLR7 and secretory SEAP reporter gene under the transcriptional regulation of an NF-κB response element. The TLR7 expression of the cell line has been already tested by RT-PCR. Transfectants with stable expression were selected using the antibiotic blasticidin and Zeocin.
# [2] = molecular target: T1, human TLR7; assay: Human TLR7 reporter gene assay (TLR7/NF-κB/SEAPorter HEK293 cell line), Tests 1 and 21; type: cell-based; conditions: Test 21; according to the method of Test 1; read-out: human EC50
# Text: Human TLR7 Reporter Gene Assay
# as §1
# According to the method of Test 1, human TLR7 reporter gene assay was done with the following samples, and the result was shown in the table below.
# [3] = system: HLA-A*02:01 transgenic mouse; assay: Test 10: in vivo adjuvant activity, cocktail vaccine b, IFNγ ELISPOT; conditions: added to cocktail vaccine b; 0.4 nmol per body, twice; FIG. 8 and 9
# Method: Evaluation of In Vivo Adjuvant Activity in HLA-A*02:01 Transgenic Mouse
# The in vivo adjuvant activity of the compound of Example 11 was evaluated in the following procedure. To cocktail vaccine b like Test 9 was added the compound prepared in Example 11 to prepare a vaccine. The vaccine was administered to a HLA-A*02:01 transgenic mouse, and the adjuvant activity of the vaccine was evaluated by the method of testing antigen-specific CTL induction.
# Specifically, Compound of formula 4 and Peptide SEQ ID No. 3 were dissolved in DMSO, and then diluted with water for injection to concentrations of Compound of formula 4 of 3 mg/mL and Peptide SEQ ID No. 3 of 2.25 mg/mL. The diluted peptide solution was mixed and emulsified with an equal volume of Montanide ISA 51 VG to prepare cocktail vaccine b. Cocktail vaccine b was injected to mice intradermally at the tail base area in an amount for administering 300 μg of Compound of formula 4 per body and 225 μg of Peptide SEQ ID No. 3 per body. […] Then, after removal of the supernatant from the wells, stained spots on the ELISPOT plate were counted.
SMILES,EC50 [1] [µM],EC50 [2] [µM],CTL counts responsive to Peptide SEQ ID No. 1 or SEQ ID No. 4 compared with adding no compound [3]
"CCC[C@@H](CO)Nc1nc(N)nc(C)c1Cc1ccc(C(=O)OCCOCCOCCOCCOC)cc1OC [Example 6, 2,5,8,11-tetraoxatridecan-13-yl 4-[(2-amino-4-{[(2S)-1-hydroxypentan-2-yl]amino}-6-methylpyrimidin-5-yl)methyl]-3-methoxybenzoate]",0.119,,
"CCCCCNc1nc(N)nc(C)c1Cc1ccc(CN(CCOCCOCCOCCO)CCOCCOCCOCCO)cc1OC [Example 11, 12-[(4-{[2-amino-4-methyl-6-(pentylamino)pyrimidin-5-yl]methyl}-3-methoxyphenyl)methyl]-3,6,9,15,18,21-hexaoxa-12-azatricosan-1,23-diol]",,0.774,more
"CCCCCNc1nc(N)nc(C)c1Cc1ccc(COCCOCCOCCOCCOC)cc1OC [Example 7, 5-{[2-methoxy-4-(2,5,8,11,14-pentaoxapentadecan-1-yl)phenyl]methyl}-6-methyl-N^4-pentylpyrimidine-2,4-diamine]",0.071,,
